The text below walks through data of patent US20230348376A1 (TEIJIN PHARMA LIMITED, priority 2020, published 2023).

Series [1] is described as follows: Evaluation of brain penetration in mice (blood and brain concentration at brain Cmax). In kind it is in vivo, mouse. As to conditions: 1 mg/kg single oral dose, C57BL/6J mice; for Concentration in blood (mean ± SD) at brain Cmax / Concentration in brain (mean ± SD) at brain Cmax: n=3. On the procedure: The administration solution was administered orally to C57BL/6J mice (8 weeks old, male, n=3) at a single dose (1 mg/kg). Mice were euthanized at 6 points of 0.25, 0.5, 1, 2, 4, and 8 hours after administration, and plasma and brain sampling were performed. After preparing a homogenate from the collected brain using Tissue Lyser II (QIAGEN #85300), acetonitrile was added to the homogenate and the homogenate was centrifuged (12000 rpm, 5 minutes) to extract the administered test compound contained in the brain. Similarly, the plasma was subjected to addition of acetonitrile and centrifugal separation to extract the administered test compound contained in the plasma. Each extracted sample was subjected to measurement of the concentration of administered test compound using LC/MS/MS (SHIMADZU UFLC/MS/MS (8050)).
Test 2 [0.2 mg/kg Administration Study] […] The administration solution was administered orally to C57BL/6J mice (8 weeks old, male, n=3) at a single dose (0.2 mg/kg). Mice were euthanized at 6 points of 0.25, 0.5, 1, 2, 4, and 8 hours after administration, and plasma and brain sampling were performed. After preparing a homogenate from the collected brain using Tissue Lyser II (QIAGEN #85300), acetonitrile was added to the homogenate and the homogenate was centrifuged (12000 rpm, 5 minutes) to extract the administered compound contained in the brain. Similarly, the plasma was subjected to addition of acetonitrile and centrifugal separation to extract the administered test compound contained in the plasma. Each extracted sample was subjected to measurement of the concentration of administered test compound using LC/MS/MS (SHIMADZU UFLC/MS/MS (8050)).

A further series deals with T1, human VDR (Homo sapiens, UniProt P11473).
T1 sequence (P11473 1-427): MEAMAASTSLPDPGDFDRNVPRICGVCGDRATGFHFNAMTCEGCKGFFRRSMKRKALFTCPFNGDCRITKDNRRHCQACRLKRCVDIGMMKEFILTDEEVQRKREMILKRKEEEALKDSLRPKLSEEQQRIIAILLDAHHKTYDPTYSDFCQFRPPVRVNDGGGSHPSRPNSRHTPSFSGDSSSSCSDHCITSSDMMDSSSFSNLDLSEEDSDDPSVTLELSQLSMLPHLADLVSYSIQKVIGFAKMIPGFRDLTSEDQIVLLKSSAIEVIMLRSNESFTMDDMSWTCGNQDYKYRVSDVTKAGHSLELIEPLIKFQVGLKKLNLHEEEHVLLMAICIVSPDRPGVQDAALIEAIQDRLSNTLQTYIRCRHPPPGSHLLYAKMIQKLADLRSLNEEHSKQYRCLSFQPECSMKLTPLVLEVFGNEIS
T1 sequence (P19793 1-462 partner): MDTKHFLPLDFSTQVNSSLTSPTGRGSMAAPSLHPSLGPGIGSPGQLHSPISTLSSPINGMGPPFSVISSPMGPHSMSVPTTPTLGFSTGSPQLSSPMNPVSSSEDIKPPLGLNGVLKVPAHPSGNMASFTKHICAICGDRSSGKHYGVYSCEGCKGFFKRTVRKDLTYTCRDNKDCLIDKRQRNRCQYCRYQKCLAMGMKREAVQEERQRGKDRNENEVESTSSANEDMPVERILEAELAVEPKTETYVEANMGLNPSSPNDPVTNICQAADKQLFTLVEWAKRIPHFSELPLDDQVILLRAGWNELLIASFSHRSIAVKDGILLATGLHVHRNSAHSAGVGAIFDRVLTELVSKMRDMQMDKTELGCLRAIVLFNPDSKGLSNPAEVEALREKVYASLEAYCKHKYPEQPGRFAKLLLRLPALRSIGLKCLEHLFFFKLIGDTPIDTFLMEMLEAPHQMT
As to the kind of experiment: Evaluation of VDR transcription activity in human osteoblasts (HOS cells), luciferase reporter. Conditions: HOS cells transfected with human VDR, human RXRα and DR3 luciferase reporter, 21 hours.

[2] abbreviates: Activity (EC50, VDR transcription activity).

Like-named read-outs stand apart in the source and are kept apart here.

With `C[C@H](CN1CCC(O)(C(F)(F)F)C1)[C@H]1CC[C@H]2/C(=C/C=C3C[C@@H](O)C[C@H](O)C3)CCC[C@]12C` (single isomer, unassigned) [Compound B045a], in series [1], the “Concentration in blood (mean ± SD) at brain Cmax” value was determined as 530 ± 97 nM and the “Concentration in brain (mean ± SD) at brain Cmax” value is 185 ± 116 pmol/g. In addition, the Kp in series [1] (male, C57BL/6J, mouse, brain/plasma, po, 1 mg/kg, read-out: Concentration in brain/in blood ratio at brain Cmax) amounted to 0.35. Further, the EC50 at human VDR (setting [2]) is less than 1 nM.

Regarding `C[C@H](CN1CCC(O)(C(F)(F)F)C1)[C@H]1CC[C@H]2/C(=C/C=C3C[C@@H](O)C[C@H](O)C3)CCC[C@]12C` (single isomer, unassigned) [Compound B045b], in series [1], the “Concentration in brain/in blood ratio at brain Cmax” value is listed as 0.25, the “Concentration in blood (mean ± SD) at brain Cmax” value is reported as 444 ± 113 nM and the “Concentration in brain (mean ± SD) at brain Cmax” value is reported as 109 ± 22 pmol/g. Further, the EC50 at human VDR (read-out: Activity (EC50, VDR transcription activity)) is less than 1 nM.

As to `C=C1/C(=C\C=C2/CCC[C@]3(C)[C@@H]([C@H](C)CN4CCO[C@@H](C(F)F)C4)CC[C@@H]23)C[C@@H](O)C[C@@H]1O` [Compound D006, (1R,3S,Z)-5-(2-((1R,3aS,7aR,E)-1-((S)-1-((R)-2-(difluoromethyl)morpholino)propan-2-yl)-7a-methyloctahydro-4H-inden-4-ylidene)ethylidene)-4-methylenecyclohexane-1,3-diol], the EC50 at human VDR (setting [2]) was in the range of 10 to 100 nM.

At human VDR (setting [2]), `C=C1[C@H](O)CC(=C/C=C2\CCC[C@]3(C)[C@@H]([C@H](C)CN4CCO[C@@H](C)C4)CC[C@@H]23)C[C@H]1O` [Compound D010, (1R,3R)-5-(2-((1R,3aS,7aR,E)-7a-methyl-1-((S)-1-((S)-2-methylmorpholino)propan-2-yl)-octahydro-4H-inden-4-ylidene)ethylidene)-2-methylene-cyclohexane-1,3-diol] returned an EC50 of 1 to 10 nM.

Consider `C=C1[C@H](O)CC(=C/C=C2\CCC[C@]3(C)[C@@H]([C@H](C)CN4CCOC5(CC5)C4)CC[C@@H]23)C[C@H]1O` [Compound D011, (1R,3R)-5-(2-((1R,3aS,7aR,E)-1-((S)-1-(4-oxa-7-azaspiro[2.5]octan-7-yl)propan-2-yl)-7a-methyloctahydro-4H-inden-4-ylidene)ethylidene)-2-methylenecyclohexane-1,3-diol], for which the EC50 on human VDR (setting [2]) is 1 to 10 nM.

Take `C=C1[C@H](O)CC(=C/C=C2\CCC[C@]3(C)[C@@H]([C@H](C)CN4CCOC(C)(C)C4)CC[C@@H]23)C[C@H]1O` [Compound D014, (1R,3R)-5-(2-((1R,3aS,7aR,E)-1-((S)-1-(2,2-dimethylmorpholino)propan-2-yl)-7a-methyloctahydro-4H-inden-4-ylidene)ethylidene)-2-methylenecyclohexane-1,3-diol]: the EC50 at human VDR (setting [2]) is 1 to 10 nM.

As for `C=C1[C@H](O)CC(=C/C=C2\CCC[C@]3(C)[C@@H]([C@H](C)CN4CCOC[C@@H]4C)CC[C@@H]23)C[C@H]1O` [Compound D015, (1R,3R)-5-(2-((1R,3aS,7aR,E)-7a-methyl-1-((S)-1-((S)-3-methylmorpholino)propan-2-yl)octahydro-4H-inden-4-ylidene)ethylidene)-2-methylenecyclohexane-1,3-diol], on human VDR (setting [2]), the EC50 was 10 to 100 nM.

Take `C=C1/C(=C\C=C2/CCC[C@]3(C)[C@@H]([C@H](C)CCN4CCOCC4)CC[C@@H]23)C[C@@H](O)C[C@@H]1O` [Compound D022, (1R,3S,Z)-5-(2-((1R,3aS,7aR,E)-7a-methyl-1-((R)-4-morpholinobutan-2-yl)octahydro-4H-inden-4-ylidene)ethylidene)-4-methylenecyclohexane-1,3-diol]: the EC50 on human VDR (setting [2]) was 10 to 100 nM.

On human VDR (setting [2]), `C=C1[C@H](O)CC(=C/C=C2\CCC[C@]3(C)[C@@H]([C@H](C)CCN4C[C@@H](C)O[C@@H](C)C4)CC[C@@H]23)C[C@H]1O` [Compound D028, (1R,3R)-5-(2-((1R,3aS,7aR,E)-1-((R)-4-((2S,6R)-2,6-dimethylmorpholino)butan-2-yl)-7a-methyloctahydro-4H-inden-4-ylidene)ethylidene)-2-methylenecyclohexane-1,3-diol] gave a concentration giving a half-maximal response (EC50) of 1 to 10 nM.

At human VDR (setting [2]), `C=C1[C@H](O)CC(=C/C=C2\CCC[C@]3(C)[C@@H]([C@H](C)CCN4CCO[C@H](C(F)F)C4)CC[C@@H]23)C[C@H]1O` [Compound D033, (1R,3R)-5-(2-((1R,3aS,7aR,E)-1-((R)-4-((S)-2-(difluoromethyl)morpholino)butan-2-yl)-7a-methyloctahydro-4H-inden-4-ylidene)ethylidene)-2-methylenecyclohexane-1,3-diol] had an EC50 of 1 to 10 nM.

`C[C@H](CCN1CCO[C@H](C(F)F)C1)[C@H]1CC[C@H]2/C(=C/C=C3C[C@@H](O)C[C@H](O)C3)CCC[C@]12C` [Compound D034, (1R,3R)-5-(2-((1R,3aS,7aR,E)-1-((R)-4-((S)-2-(difluoromethyl)morpholino)butan-2-yl)-7a-methyloctahydro-4H-inden-4-ylidene)ethylidene)cyclohexane-1,3-diol] had an EC50 at human VDR (setting [2]) of 10 to 100 nM.

On human VDR (setting [2]), `C=C1/C(=C\C=C2/CCC[C@]3(C)[C@@H]([C@H](C)CCN4CCO[C@H](C(F)F)C4)CC[C@@H]23)C[C@@H](O)C[C@@H]1O` [Compound D035, (1R,3S,Z)-5-(2-((1R,3aS,7aR,E)-1-((R)-4-((S)-2-(difluoromethyl)morpholino)butan-2-yl)-7a-methyloctahydro-4H-inden-4-ylidene)ethylidene)-4-methyloctahydro-1,3-diol] gave an EC50 of 10 to 100 nM.

`C=C1[C@H](O)CC(=C/C=C2\CCC[C@]3(C)[C@@H]([C@H](C)CCN4CCO[C@@H](C(F)F)C4)CC[C@@H]23)C[C@H]1O` [Compound D036, (1R,3R)-5-(2-((1R,3aS,7aR,E)-1-((R)-4-((R)-2-(difluoromethyl)morpholino)butan-2-yl)-7a-methyloctahydro-4H-inden-4-ylidene)ethylidene)-2-methylenecyclohexane-1,3-diol] returned an EC50 at human VDR (setting [2]) of 1 to 10 nM.

Regarding `C=C1[C@H](O)CC(=C/C=C2\CCC[C@]3(C)[C@@H]([C@H](C)CCN4C[C@@H](C)OC[C@H]4C)CC[C@@H]23)C[C@H]1O` [Compound D039, (1R,3R)-5-(2-((1R,3aS,7aR,E)-1-((R)-4-((2R,5R)-2,5-dimethylmorpholino)butan-2-yl)-7a-methyloctahydro-4H-inden-4-ylidene)ethylidene)-2-methylenecyclohexane-1,3-diol], the EC50 at human VDR (setting [2]) lay within 1 to 10 nM.

Molecule `C=C1[C@H](O)CC(=C/C=C2\CCC[C@]3(C)[C@@H]([C@H](C)CCN4CCO[C@H](C)C4)CC[C@@H]23)C[C@H]1O` [Compound D040, (1R,3R)-5-(2-((1R,3aS,7aR,E)-7a-methyl-1-((R)-4-((R)-2-methylmorpholino)butan-2-yl)octahydro-4H-inden-4-ylidene)ethylidene)-2-methylenecyclohexane-1,3-diol] came in with an EC50 on human VDR (setting [2]) of 1 to 10 nM.

In turn, `C[C@H](CCN1CCOCC1(C)C)[C@H]1CC[C@H]2/C(=C/C=C3C[C@@H](O)C[C@H](O)C3)CCC[C@]12C` [Compound D049, (1R,3R)-5-(2-((1R,3aS,7aR,E)-1-((R)-4-(3,3-dimethylmorpholino)butan-2-yl)-7a-methyloctahydro-4H-inden-4-ylidene)ethylidene)cyclohexane-1,3-diol] had an EC50 on human VDR (setting [2]) of 100 to 1000 nM.
